Consider 7 molecules from patent US11584916B2, “Method of making in vivo human small intestine organoids from pluripotent stem cells” (Children's Hospital Medical Center, priority 2014, dated 2023).

Entries after “also recorded” stand apart in the source; their conditions may differ.

One test deals with HIO+NCC tissues. The experiment in a line: Ex-vivo intestinal motility, organ bath, muscle strips of engrafted HIO+NCC. In kind it is cell-based, human.
A further test has as its system ENS neurons in HIOs+NCCs. The experiment in a line: Live imaging of Ca2+ flux (GCaMP6f) in HIOs+NCCs in vitro. The test is classed as cell-based, human. The conditions noted are these: 30 mM; HIOs+GCaMP6 expressing NCCs. The source says:
The accessibility of in vitro grown HIOs allowed us to test the functionality of neurons using live imaging with the Ca2+ sensor GCaMP6f19. To do this, Applicant generated HIOs and incorporated into them NCCs that were derived from a PSC line containing GCaMP6 (FIG. 17A). Imaging of neural activity in HIOs grown for 8 weeks in vitro detected broad, spontaneous, and rapid calcium transients within neurons. When individual neurons were monitored there was an obvious periodicity of calcium efflux in the range of 3-4 seconds/neuron (FIGS. 17B and 17C).
(A change in cytosolic calcium serves as a functional read-out for many receptors and channels.)

Test [1] concerns the target T1, peptide transporter (PEPT1) (Homo sapiens, UniProt P46059).
T1 sequence (P46059 1-708): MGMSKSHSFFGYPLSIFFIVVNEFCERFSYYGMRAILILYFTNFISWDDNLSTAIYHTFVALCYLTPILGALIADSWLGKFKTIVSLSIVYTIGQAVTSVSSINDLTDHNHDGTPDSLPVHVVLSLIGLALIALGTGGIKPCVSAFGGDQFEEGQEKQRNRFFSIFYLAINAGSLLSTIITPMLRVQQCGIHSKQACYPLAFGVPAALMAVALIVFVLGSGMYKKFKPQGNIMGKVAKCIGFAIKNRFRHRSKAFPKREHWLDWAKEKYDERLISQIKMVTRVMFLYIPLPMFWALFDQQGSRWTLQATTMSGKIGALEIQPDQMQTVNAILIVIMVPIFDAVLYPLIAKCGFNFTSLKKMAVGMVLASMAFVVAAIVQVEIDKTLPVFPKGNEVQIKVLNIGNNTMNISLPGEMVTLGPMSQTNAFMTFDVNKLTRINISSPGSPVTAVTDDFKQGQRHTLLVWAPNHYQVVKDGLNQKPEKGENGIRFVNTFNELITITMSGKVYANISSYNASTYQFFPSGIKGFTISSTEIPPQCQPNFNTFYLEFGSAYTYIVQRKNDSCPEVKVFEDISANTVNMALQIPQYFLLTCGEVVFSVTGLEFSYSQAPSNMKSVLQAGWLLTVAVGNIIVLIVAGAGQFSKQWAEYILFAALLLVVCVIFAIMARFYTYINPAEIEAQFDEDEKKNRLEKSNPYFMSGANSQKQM
As to conditions: in vivo.

The test system of a further test is HIO+NCC tissue. The test is classed as cell-based, human.
Test [2] deals with vagal-level Hox genes HoxB3 and HoxB7. The experiment in a line: Chick cranial NCC culture, Hox gene expression. In kind it is cell-based. The conditions noted are these: 2 μM RA or 4 ng/mL FGF4 for 48 hours. On the procedure:
Chicken eggs were purchased from Charles River and incubated at 39° C. until they reached the desired Hamburger and Hamilton stage. For chicken NCC culture, dorsal neural tubes from cranial or trunk region of HH8 embryos were dissected by Gastromaster and cultured on matrigel-coated tissue culture dish with NCC culture medium (BajPai R et al, 2010) for 24 hours. The neural ectoderm was scrapped off the plate by tungsten needle after NCCs migrated out from the neural tube explants. The NCCs remained on the plate were then treated with 4 ng/mL FGF4 or 2 μM Retinoic acid for 48 hours. For NCCs injection, GFP-labeled human PSC-derived NCCs were collected and injected intersomitically into HH10-12 chicken embryos. The embryos were harvested around HH38 for analysis.

Test [3] concerns vagal-level Hox genes HOXB3, HOXB5, and HOXB7. The experiment in a line: Posteriorization of human PSC-derived neurospheres/NCCs, Hox gene expression by qRT-PCR. The test is classed as cell-based. As to conditions: two days (48 hours) at the neurosphere stage; RA 2 μM. On the procedure:
Cells were fed mTeSR1 media and routinely passaged using Dispase II (Gibco). NCCs and HIOs were generated and combined at an early stage of intestinal differentiation to generate HIOs containing ENS. Briefly, for NCC generation (FIG. 1), hPSCs were treated with collagenase IV (500 U/mL) in mTeSR1 for 60 min to detach colonies. Cells were washed to remove collagenase, then gently triturated and resuspended in neural induction media on non-TC treated petri dishes. Neural induction media was changed daily and retinoic acid (2 μM) was added on days 4 and 5 for posteriorization. Day 6 free-floating neurospheres were plated on fibronectin (3 μg/cm2) and fed neural induction media without RA for 4 days. Migrated cells were collected using a brief Accutase treatment (2-3 min) and passaged onto fibronectin or used immediately for combining with HIOs. NCCs were differentiated essentially as described for neuroglial 9 and mesenchymal lineages 36. […] Following the formation of gut tube spheroids, Applicant gently centrifuged spheroids +/−NCCs and embedded them in Matrigel. […]
Total RNA from cells and organoids was isolated using NucleoSpin RNA isolation Kit (Macherey-Nagel). […] Applicant performed qPCR using QuantiTect SYBR Green PCR Kit (Qiagen) on a BioRad CFX96 Real-Time PCR Detection System. […]
(In qPCR the cycle at which signal appears reflects the starting amount.)

Test [4] deals with human pluripotent stem cells. The experiment in a line: Directed differentiation of human pluripotent stem cells into definitive endoderm. The test is classed as cell-based. As to conditions: 100 ng ml-1 Activin A for 3 d. On the procedure:
Human intestinal organoids were generated and maintained as previously described (Spence et al, Nature 2011 and McCracken et al. Nat. Protoc. 2011). Human embryonic stem cells and induced pluripotent stem cells were grown in feeder-free conditions in six-well Nunclon surface plates (Nunc) coated with Matrigel (BD Biosciences) and maintained in mTESR1 media (Stem Cell Technologies). For induction of definitive endoderm (DE), human ES or iPS cells were passaged with Dispase or Accutase (Invitrogen) and plated at a density of 100,000 cells per well in a Matrigel-coated, Nunclon surface 24-well plate. For Accutase split cells, 10 μM Y27632 compound (Sigma) was added to the media for the first day. Cells were allowed to grow until they reached 80-95% confluence. Cells were then treated with 100 ng ml-1 of Activin A for 3 d as previously described (D'Amour et al. Nat. Biotechnol. 2005). DE was then treated with hindgut induction medium (RPMI 1640, 2 mM L-glutamine, 2% decomplemented FBS, penicillin-streptomycin and 100 ng ml-1 Activin A) for 4 d with 500 ng mL-1 FGF4 (R&D) and 3 μM Chiron 99021 (Tocris) to induce formation of mid-hindgut spheroids. […]

Take `COC(=O)[C@@H](N)CCCNC(=N)N[N+](=O)[O-]` [L-NAME, NG-nitro-L-arginine methyl ester]: the “effect on relaxation after DMPP stimulation” value in the test on HIO+NCC tissues (L-NAME applied 5 min before DMPP (10 μM) stimulation) is on record as “significantly decreased the relaxation”.

Regarding `[Cl-].[K+]` [KC1], the neuronal calcium response result with ENS neurons in HIOs+NCCs is recorded as “large wave of neuronal calcium efflux”.

As for `C[C@H](CS)C(=O)N1CCC[C@H]1C(=O)O` [Captopril], the “fluorescence within the epithelium after injection of labeled peptide + competitive inhibitor” value in test [1] is “little to no fluorescence was observed”.

Regarding `NC1=N[C@H](O)[C@H]2[C@H]3O[C@]4(O)O[C@@H]([C@@H](O)[C@@]2(N1)[C@@H]4O)[C@]3(O)CO` [TTX, tetrodotoxin], in the test on HIO+NCC tissues, the “effect on muscle relaxation in response to DMPP and or veratridine” value is “inhibited the ability of the neurons to induce muscle relaxation”. Moreover, the “effect on contractions/motility triggered by low voltage EFS” value in the test with HIO+NCC tissue was “completely inhibited and lost”.

On to `CN(C)c1ccc2nc3ccc(=[N+](C)C)cc-3sc2c1` [Methylene Blue], for which, in the test with HIO+NCC tissues (Methylene Blue 50 μM, no neuronal stimulation), the “effect on spontaneous phasic contractions (ICC activity)” value was “abolished phasic contractions; also recorded: loss of contractile activity”.

B1: FGF4: growth factor tested as a different posterizing factor (protein, UniProt P08620 31-206, looked up)
Fibroblast growth factor 4: APTAPNGTLEAELERRWESLVALSLARLPVAAQPKEAAVQSGAGDYLLGIKRLRRLYCNVGIGFHLQALPDGRIGGAHADTRDSLLELSPVERGVVSIFGVASRFFVAMSSKGKLYGSPFFTDECTFKEILLPNNYNAYESYKYPGMFIALSKNGKTKKGNRVSPTMKVTHFLPRL
In the case of B1, the “Hox gene expression in chick cranial NCCs” value in test [2] is “had no effect”. The “expression of vagal-level Hox genes in human PSC-derived NCCs” value in test [3] is listed as “little effect”.

B2: Activin A: growth factor used to induce definitive endoderm (protein, UniProt P08476 311-426, looked up)
Inhibin beta A chain: GLECDGKVNICCKKQFFVSFKDIGWNDWIIAPSGYHANYCEGECPSHIAGTSGSSLSFHSTVINHYRMRGHSPFANLKSCCVPTKLRPMSMLYYDDGQNIIKKDIQNMIVEECGCS
modifications: Inhibin beta A chain
notes: growth factor used to induce definitive endoderm
On to B2, for which, in test [4], the “differentiation into definitive endoderm (FOXA2 and SOX17)” value is reported as “efficient differentiation into definitive endoderm”.
